Data: the supplement of paper PMC10307832

Compound: C[C@@H](Oc1cc(-c2cnn(C3CCNCC3)c2)cnc1N)c1c(Cl)ccc(F)c1Cl [Crizotinib] + CC(=O)c1c(C)c2cnc(Nc3ccc(N4CCNCC4)cn3)nc2n(C2CCCC2)c1=O [Palbociclib] (partner 0.5 µM)
Test: relative viability (nuclei count vs DMSO), 5 days (fraction); higher = more cells survive
Settings: first compound 0.01 µM
Procedure, shortened: (§1)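 Nuclei were stained with Hoechst during a one-step fixation (final 0.05% Triton X-100, 1% formaldehyde, 1 ug/ml Hoechst) carried out 5 days after dosing, then counted on 4× images. The cells, lung cancer lines in 1536-well plates, had been dosed by pin tool the day after seeding with one drug alone or a fixed anchor-drug dose plus five library-drug doses (not always all listed) in √10 steps. Relative viability is the nuclei count in treated wells divided by that in vehicle wells, and each value is the median of duplicate plates.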

Row | Cell Line | relative viability
1 | NCI-H2009 | 0.185
2 | NCI-H2023 | 0.356
3 | NCI-H2085 | 0.464
4 | NCI-H2087 | 0.178
5 | NCI-H2126 | 0.313
6 | NCI-H2170 | 0.38
7 | NCI-H2228 | 0.714
8 | NCI-H2342 | 0.527
9 | NCI-H2347 | 0.384
10 | NCI-H2405 | 0.479
11 | NCI-H3122 | 0.176
12 | PC-3 [JPC-3] | 0.53
13 | PC-14 | 0.52
14 | RERF-LC-KJ | 0.98
15 | SK-LU-1 | 0.391
16 | SK-MES-1 | 0.295
17 | SW 900 | 0.544
18 | SW 1573 | 0.373
19 | UMC-11 | 0.329

Same assay, conditions: first compound 0.03162 µM

Row | Cell Line | relative viability
20 | NCI-H2009 | 0.208
21 | NCI-H2023 | 0.308
22 | NCI-H2085 | 0.484
23 | NCI-H2087 | 0.244
24 | NCI-H2126 | 0.385
25 | NCI-H2170 | 0.435
26 | NCI-H2228 | 0.608
27 | NCI-H2342 | 0.549
28 | NCI-H2347 | 0.441
29 | NCI-H2405 | 0.515
30 | NCI-H3122 | 0.184
31 | PC-3 [JPC-3] | 0.566
32 | PC-14 | 0.53
33 | RERF-LC-KJ | 1.12
34 | SK-LU-1 | 0.359
35 | SK-MES-1 | 0.318
36 | SW 900 | 0.453
37 | SW 1573 | 0.368
38 | UMC-11 | 0.336

Same assay, conditions: first compound 0.1 µM

Row | Cell Line | relative viability
39 | NCI-H2009 | 0.249
40 | NCI-H2023 | 0.353
41 | NCI-H2085 | 0.469
42 | NCI-H2087 | 0.213
43 | NCI-H2126 | 0.37
44 | NCI-H2170 | 0.362
45 | NCI-H2228 | 0.691
46 | NCI-H2342 | 0.531
47 | NCI-H2347 | 0.465
48 | NCI-H2405 | 0.509
49 | NCI-H3122 | 0.16
50 | PC-3 [JPC-3] | 0.545
51 | PC-14 | 0.419
52 | RERF-LC-KJ | 0.925
53 | SK-LU-1 | 0.38
54 | SK-MES-1 | 0.341
55 | SW 900 | 0.497
56 | SW 1573 | 0.39
57 | UMC-11 | 0.307

Same assay, conditions: first compound 0.3162 µM

Row | Cell Line | relative viability
58 | NCI-H2009 | 0.189
59 | NCI-H2023 | 0.229
60 | NCI-H2085 | 0.442
61 | NCI-H2087 | 0.229
62 | NCI-H2126 | 0.342
63 | NCI-H2170 | 0.384
64 | NCI-H2228 | 0.432
65 | NCI-H2342 | 0.485
66 | NCI-H2347 | 0.437
67 | NCI-H2405 | 0.56
68 | NCI-H3122 | 0.2
69 | PC-14 | 0.566
70 | RERF-LC-KJ | 0.991
71 | SK-LU-1 | 0.361
72 | SK-MES-1 | 0.312
73 | SW 900 | 0.546
74 | SW 1573 | 0.417

Same assay, conditions: first compound 1 µM

Row | Cell Line | relative viability
75 | NCI-H2009 | 0.193
76 | NCI-H2023 | 0.236
77 | NCI-H2085 | 0.44
78 | NCI-H2087 | 0.23
79 | NCI-H2126 | 0.351
80 | NCI-H2170 | 0.381
81 | NCI-H2228 | 0.367
82 | NCI-H2342 | 0.576
83 | NCI-H2347 | 0.335
84 | NCI-H2405 | 0.501
85 | NCI-H3122 | 0.187
86 | PC-3 [JPC-3] | 0.553
87 | PC-14 | 0.535
88 | RERF-LC-KJ | 1.06
89 | SK-LU-1 | 0.436
90 | SK-MES-1 | 0.302
91 | SW 900 | 0.514
92 | SW 1573 | 0.411
93 | UMC-11 | 0.398

Compound: C[C@@H](Oc1cc(-c2cnn(C3CCNCC3)c2)cnc1N)c1c(Cl)ccc(F)c1Cl [Crizotinib] + Nc1nc2[nH]cc(CCc3ccc(C(=O)N[C@@H](CCC(=O)O)C(=O)O)cc3)c2c(=O)[nH]1 [Pemetrexed] (partner 0.2 µM)
Test: as above
Settings: first compound 0.01 µM
Procedure, shortened: as §1

Row | Cell Line | relative viability
94 | NCI-H2009 | 1.02
95 | NCI-H2023 | 0.149
96 | NCI-H2085 | 0.808
97 | NCI-H2087 | 0.725
98 | NCI-H2126 | 0.616
99 | NCI-H2170 | 0.251
100 | NCI-H2228 | 0.338
101 | NCI-H2342 | 0.761
102 | NCI-H2347 | 0.387
103 | NCI-H2405 | 0.875
104 | NCI-H3122 | 0.192
105 | PC-3 [JPC-3] | 0.883
106 | PC-14 | 0.124
107 | RERF-LC-KJ | 0.475
108 | SK-LU-1 | 0.887
109 | SK-MES-1 | 0.879
110 | SW 900 | 0.505
111 | UMC-11 | 0.864

Same assay, conditions: first compound 0.03162 µM

Row | Cell Line | relative viability
112 | NCI-H2009 | 1.05
113 | NCI-H2023 | 0.226
114 | NCI-H2085 | 0.978
115 | NCI-H2087 | 0.724
116 | NCI-H2170 | 0.283
117 | NCI-H2228 | 0.324
118 | NCI-H2342 | 0.792
119 | NCI-H2347 | 0.441
120 | NCI-H2405 | 1.09
121 | NCI-H3122 | 0.196
122 | PC-3 [JPC-3] | 1.23
123 | PC-14 | 0.127
124 | RERF-LC-KJ | 0.459
125 | SK-LU-1 | 0.911
126 | SK-MES-1 | 0.928
127 | SW 900 | 0.437
128 | SW 1573 | 0.797
129 | UMC-11 | 0.76

Same assay, conditions: first compound 0.1 µM

Row | Cell Line | relative viability
130 | NCI-H2009 | 0.974
131 | NCI-H2023 | 0.172
132 | NCI-H2085 | 0.856
133 | NCI-H2087 | 0.553
134 | NCI-H2126 | 0.68
135 | NCI-H2170 | 0.265
136 | NCI-H2228 | 0.296
137 | NCI-H2342 | 0.737
138 | NCI-H2347 | 0.446
139 | NCI-H2405 | 1.04
140 | NCI-H3122 | 0.195
141 | PC-3 [JPC-3] | 1.19
142 | PC-14 | 0.134
143 | RERF-LC-KJ | 0.461
144 | SK-LU-1 | 0.815
145 | SK-MES-1 | 0.927
146 | SW 900 | 0.493
147 | SW 1573 | 0.749
148 | UMC-11 | 0.732

Same assay, conditions: first compound 0.3162 µM

Row | Cell Line | relative viability
149 | NCI-H2009 | 0.957
150 | NCI-H2023 | 0.189
151 | NCI-H2085 | 0.749
152 | NCI-H2087 | 0.702
153 | NCI-H2126 | 0.659
154 | NCI-H2170 | 0.266
155 | NCI-H2228 | 0.352
156 | NCI-H2342 | 0.636
157 | NCI-H2347 | 0.457
158 | NCI-H2405 | 0.993
159 | NCI-H3122 | 0.182
160 | PC-14 | 0.143
161 | RERF-LC-KJ | 0.473
162 | SK-LU-1 | 1.02
163 | SW 900 | 0.476
164 | SW 1573 | 0.676
165 | UMC-11 | 0.814

Same assay, conditions: first compound 1 µM

Row | Cell Line | relative viability
166 | NCI-H2009 | 0.989
167 | NCI-H2023 | 0.209
